From patent US9999619B2, “Piperidin-4-yl azetidine derivatives as JAK1 inhibitors” (Incyte Corporation, priority 2010, dated 2018)

Experiments:
Type in all cases: biochemical
Jak2 (a.a. 828-1132) = Jak2 (a.a. 828-1132) (Homo sapiens (Human), UniProt O60674); experiment: In vitro JAK kinase assay (HTRF, phosphorylation of a biotinylated peptide), JAK2; settings: measured at 1 mM ATP
Summary of the method: (§1)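 N-terminal His-tagged catalytic domains, baculovirus-expressed in insect cells, phosphorylated a biotinylated peptide for 1 hr at room temperature. EDTA stop was followed by SA-APC and Eu-Py20 antibody for 40 minutes, with phosphopeptide read by HTRF.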

[1] = biological target: human JAK1 (a.a. 837-1142); experiment: In vitro JAK kinase assay (HTRF, phosphorylation of a biotinylated peptide), JAK1; settings: ratio of JAK2 IC50 to JAK1 IC50, measured at 1 mM ATP
Summary of the method: as §1

[2] = biological target: human JAK1 (a.a. 837-1142) (Homo sapiens, UniProt P23458); experiment: as above; settings: measured at 1 mM ATP
Summary of the method: as §1

Sequence of Jak2 (a.a. 828-1132) (O60674 828-1132): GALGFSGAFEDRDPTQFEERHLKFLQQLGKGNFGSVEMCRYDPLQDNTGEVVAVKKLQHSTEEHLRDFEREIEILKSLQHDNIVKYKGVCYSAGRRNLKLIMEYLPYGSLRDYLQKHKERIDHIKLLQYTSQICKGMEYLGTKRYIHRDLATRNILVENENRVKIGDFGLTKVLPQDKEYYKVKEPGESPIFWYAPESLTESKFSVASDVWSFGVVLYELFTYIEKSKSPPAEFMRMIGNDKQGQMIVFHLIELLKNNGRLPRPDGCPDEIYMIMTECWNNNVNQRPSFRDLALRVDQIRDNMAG

| IC50 (Jak2 (a.a. 828-1132)) [nM] | IC50 Ratio JAK2/JAK1 [1] | IC50 [2] [nM] | SMILES |
| --- | --- | --- | --- |
| ≤ 10 | 1.9 | ≤ 5 | COc1cccc(C(=O)N2CCC(N3CC(CC#N)(n4cc(-c5ncnc6[nH]ccc56)cn4)C3)CC2)c1 [Example 31, {1-[1-(3-methoxybenzoyl)piperidin-4-yl]-3-[4-(7H-pyrrolo[2,3-d]pyrimidin-4-yl)-1H-pyrazol-1-yl]azetidin-3-yl}acetonitrile] |
| 10 to 50 | 4.4 | ≤ 5 | COc1c(F)c(F)cc(C(=O)N2CCC(N3CC(CC#N)(n4cc(-c5ncnc6[nH]ccc56)cn4)C3)CC2)c1F [Example 32, {3-[4-(7H-pyrrolo[2,3-d]pyrimidin-4-yl)-1H-pyrazol-1-yl]-1-[1-(2,4,5-trifluoro-3-methoxybenzoyl)piperidin-4-yl]azetidin-3-yl}acetonitrile] |
| ≤ 10 | 0.5 | ≤ 5 | COc1cc(OC)cc(C(=O)N2CCC(N3CC(CC#N)(n4cc(-c5ncnc6[nH]ccc56)cn4)C3)CC2)c1 [Example 33, {1-[1-(3,5-dimethoxybenzoyl)piperidin-4-yl]-3-[4-(7H-pyrrolo[2,3-d]pyrimidin-4-yl)-1H-pyrazol-1-yl]azetidin-3-yl}acetonitrile] |
| 10 to 50 | 6.0 | 5 to 20 | N#CCC1(n2cc(-c3ncnc4[nH]ccc34)cn2)CN(C2CCN(C(=O)c3ccc(F)c(Cl)c3)CC2)C1 [Example 34, {1-[1-(3-chloro-4-fluorobenzoyl)piperidin-4-yl]-3-[4-(7H-pyrrolo[2,3-d]pyrimidin-4-yl)-1H-pyrazol-1-yl]azetidin-3-yl}acetonitrile] |
| 10 to 50 | 6.9 | ≤ 5 | N#CCC1(n2cc(-c3ncnc4[nH]ccc34)cn2)CN(C2CCN(C(=O)c3ccc(F)c(F)c3)CC2)C1 [Example 35, {1-[1-(3,4-difluorobenzoyl)piperidin-4-yl]-3-[4-(7H-pyrrolo[2,3-d]pyrimidin-4-yl)-1H-pyrazol-1-yl]azetidin-3-yl}acetonitrile] |
| ≤ 10 | 2.3 | ≤ 5 | COc1cc(F)cc(C(=O)N2CCC(N3CC(CC#N)(n4cc(-c5ncnc6[nH]ccc56)cn4)C3)CC2)c1 [Example 36, {1-[1-(3-fluoro-5-methoxybenzoyl)piperidin-4-yl]-3-[4-(7H-pyrrolo[2,3-d]pyrimidin-4-yl)-1H-pyrazol-1-yl]azetidin-3-yl}acetonitrile] |
| ≤ 10 | 2.1 | ≤ 5 | COc1cc(C(=O)N2CCC(N3CC(CC#N)(n4cc(-c5ncnc6[nH]ccc56)cn4)C3)CC2)cc(Cl)n1 [Example 37, {1-[1-(2-chloro-6-methoxyisonicotinoyl)piperidin-4-yl]-3-[4-(7H-pyrrolo[2,3-d]pyrimidin-4-yl)-1H-pyrazol-1-yl]azetidin-3-yl}acetonitrile] |
| ≤ 10 | 5.7 | ≤ 5 | COc1ccc(F)cc1C(=O)N1CCC(N2CC(CC#N)(n3cc(-c4ncnc5[nH]ccc45)cn3)C2)CC1 [Example 38, {1-[1-(5-fluoro-2-methoxybenzoyl)piperidin-4-yl]-3-[4-(7H-pyrrolo[2,3-d]pyrimidin-4-yl)-1H-pyrazol-1-yl]azetidin-3-yl}acetonitrile] |
| ≤ 10 | 3.2 | ≤ 5 | COc1cccc(F)c1C(=O)N1CCC(N2CC(CC#N)(n3cc(-c4ncnc5[nH]ccc45)cn3)C2)CC1 [Example 39, {1-[1-(2-fluoro-6-methoxybenzoyl)piperidin-4-yl]-3-[4-(7H-pyrrolo[2,3-d]pyrimidin-4-yl)-1H-pyrazol-1-yl]azetidin-3-yl}acetonitrile] |
| ≤ 10 | 4.8 | ≤ 5 | COc1cc(F)ccc1C(=O)N1CCC(N2CC(CC#N)(n3cc(-c4ncnc5[nH]ccc45)cn3)C2)CC1 [Example 40, {1-[1-(4-fluoro-2-methoxybenzoyl)piperidin-4-yl]-3-[4-(7H-pyrrolo[2,3-d]pyrimidin-4-yl)-1H-pyrazol-1-yl]azetidin-3-yl}acetonitrile] |
